Experimental data: PubChem BioAssay AID2102 (Southern Research Specialized Biocontainment Screening …, 2009)

Test system: Host cell viability cytotoxicity counter-screen, SV40 T antigen hits
Experiment: cell viability loss from selected hits – cytotoxicity control for SV40 T antigen inhibitor project, dose response (AID 2102);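 further: cells exposed to compounds for 72 hours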

Structure (SMILES)	CC50 [µM]
CNc1nc(-c2ccccc2)[n+](-c2ccc(C)cc2)s1	36.2
Cc1ccccc1/C=C/C(=O)c1ccc([N+](=O)[O-])o1	23.6
Cc1ccc(C2(C)NC(=O)N(CC(=O)Nc3nc(-c4ccccn4)cs3)C2=O)cc1 (centres undefined)	11.3
O=S(=O)(c1ccc(NC(=S)N2CCN(c3ccc(O)cc3)CC2)cc1)N1CCOCC1	33
CCOc1c(Br)cc(CNc2ccc(N3CCOCC3)cc2)cc1OC	13.8
C=CCn1c(=S)[nH]c2scc(-c3ccco3)c2c1=O	32.5
CCCC[n+]1c2ccccc2cc2ccccc21	23.9
Oc1ccc(CCNc2c3ccccc3nc3ccccc23)cc1O	39.3
O=C1NC(=Nc2ccc(O)cc2)S/C1=C\C=C\c1ccco1	30.2
CCCc1cc(-c2n[nH]c(C(=O)OCC)c2-c2cscn2)c(O)cc1O	11.1
Nc1cnc(Nc2ccc(Br)cc2)nc1N	42.2
COCCN=C1Sc2nc3c(C)cccc3cc2CN1Cc1ccco1	23
CCN(CC)c1ccc(/C=N/N2CCOCC2)cc1	49.4
CCC[n+]1c2ccccc2cc2ccccc21	23.8
CCOc1cc(N2CCOCC2)c(OCC)cc1NS(=O)(=O)c1ccc(Cl)s1	40
Clc1ccccc1CSc1nnc(-c2ccco2)c(-c2ccco2)n1	24.6
Cc1ccc2nc(-c3ccccn3)c(NC3CCCC3)n2c1	15.1
Oc1cc2c(c(Cl)c1O)CCNCC2c1ccccc1 (centres undefined)	41
COc1cc(-c2cc(=O)c3ccccc3o2)ccc1O	35.7
COc1cc(CNc2ccc(N3CCOCC3)cc2)ccc1OCC(=O)NC(C)(C)C	30.8
O=C(N/N=C/c1cc(Br)c(O)c(Br)c1)c1cc2c(ccc3ccccc32)o1	32.3
CCCCC(CC)CN=C(N)NC(N)=NCCCCCCN=C(N)NC(N)=NCC(CC)CCCC (centres undefined)	3.49
Cc1ccc(-c2ccc(/C=C3\C(=O)ON=C3c3ccccc3)o2)c([N+](=O)[O-])c1	37.5
Cc1ccc(-n2sc3ccccc3c2=O)cc1S(=O)(=O)N1CCCCC1	14.7

Structure (SMILES)	CC50 [µM]
CCCc1nc2ccccc2c(=O)n1/N=C/c1ccc(O)c(O)c1	48.4
COc1cc(OC)c(-c2c3cc(O)c(=O)cc-3oc3cc(O)c(O)cc23)cc1OC	47.7
COc1ccc(N2CCC(CNC(=S)Nc3c(C)cc(C)cc3C)C2)cc1 (centres undefined)	15.9
CC(/C=C1\SC(=S)N(CCCC(=O)Nc2ccc(C(=O)O)c(O)c2)C1=O)=C\c1ccccc1	38.4
Cc1ccc(/C=C2/SC(=O)NC2=S)o1	48.1
C=CCn1c(SCC(C)=O)nc2scc(-c3ccco3)c2c1=O	48.4
CCN(CC)c1ccc(NC(=O)CCNS(=O)(=O)c2ccc3c(c2)CCC(=O)N3)c(C)c1	42.2
O=C(NN1C(=O)/C(=C/C=C/c2ccco2)SC1=S)c1ccccc1O	40.6
CC(C)c1ccc(S(=O)(=O)N2CCN(CC(=O)c3ccc(O)c(O)c3)CC2)cc1	31.3
Oc1ccc(Nc2nc(N3CCCC3)c3ccccc3n2)cc1	30.7
CCN(CC)c1ccc(/C=C2\C(=O)N(c3nnc(C)c(=O)[nH]3)N=C2C)cc1	46.4
O=C1NC(=S)S/C1=C\c1ccc(SCc2ccccc2)o1	30
CC1=NOC(=O)/C1=C\c1ccc(-c2ccccc2Br)o1	24.7
COc1ccc(N2CCC(CNC(=S)Nc3ccc(C)cc3C)C2)cc1 (centres undefined)	15
Cc1nc2ncccn2c1-c1csc(Nc2ccc(N(C)C)cc2)n1	27.5
O=C(CCSc1ccc(Cl)cc1)N1CCN(c2ccc(O)cc2)CC1	14.6
Cc1ccc(S(=O)(=O)N2CCCOC2CNC(=O)C(=O)NCCc2c[nH]c3ccccc23)cc1 (centres undefined)	27.7
CCCCNC(=O)c1sc(=S)n2c1[nH]c(=O)c1ccccc12	31.8
CC(=O)Nc1sc(N/N=C\c2ccco2)nc1-c1cccs1	49.8
COc1cc(/C=C/C(=O)c2ccc([N+](=O)[O-])o2)ccc1O	44.1
Cc1c(C)n(Cc2ccccc2)c2ncnc(NN)c12	6.12
Cc1ccc(S(=O)(=O)N2[C@@H](c3ccc(Cl)cc3)C(C(=O)O)=CC[C@H]2c2ccc(Cl)cc2)cc1	30.7
O=C(CCl)Nc1ccc(N2CCCCCC2)cc1	47.1
Cc1cc(C(=O)c2cccs2)c(N)s1	35.8

Structure (SMILES)	CC50 [µM]
O=C(NC1CCCC1)c1sc(=S)n2c1[nH]c(=O)c1ccccc12	15.9
Oc1ccc(N2CCN(C(=S)NCCc3ccccc3)CC2)cc1	45
CC(=O)N(c1ccc2oc(=O)sc2c1)S(=O)(=O)c1cccs1	33.8
O=c1cc(-c2ccc(O)c(O)c2)oc2cc(O)cc(O)c12	47.9
O=C1C(SCCO)=C(SCCO)C(=O)c2ccccc21	28.2
O=C(/C=C/c1ccc(O)c(O)c1)c1ccccc1O	26.3
COc1ccc(N2CCC(CNC(=S)Nc3c(C)cccc3C)C2)cc1 (centres undefined)	45.8
CCS(=O)(=O)c1ncc(Cl)c(C(=O)Nc2ccc(S(=O)(=O)N3CCC(C)CC3)cc2)n1	48.6
CN(C)c1ccc(NS(=O)(=O)c2cccc(Cl)c2)cc1	47.2
Cc1cc2c(N=O)c(NO)ccc2[nH]1	22.1
Oc1ccc(/C=N/Nc2ccc(C(F)(F)F)cn2)cc1O	34.6
O=C(CCOc1ccccc1)N1CCN(c2ccc(O)cc2)CC1	31.5
CN1\C(=C/C=C/C=C/C=[N+](C)C)C(C)(C)c2ccccc21	21.7
O=C1NC(=S)S/C1=C\c1ccc(SCc2ccco2)o1	15.2
Oc1ccc(-c2[nH]ncc2-c2cccc3cccnc23)c(O)c1	17.3
CCOc1ccc(NCc2cccn2-c2nnc(N3CCC(C(=O)NCCCN4CC(C)CC(C)C4)CC3)s2)cc1 (centres undefined)	36.9
CCS(=O)(=O)c1ncc(Cl)c(C(=O)Nc2ccc(S(=O)(=O)N3CCCC(C)C3)cc2)n1 (centres undefined)	31.2
O=c1c2ccccc2nc(COc2ccccc2)n1/N=C/c1ccc(O)c(O)c1	33.8
CCOc1c(Br)cc(CNc2ccc(N3CCN(C(C)=O)CC3)cc2)cc1OC	14.2
O=c1oc2cc(O)ccc2s1	31.2
CCOC(=O)c1c(N2C(=O)Nc3cc(Cl)c(Cl)cc3N2O)sc2c1CCCCC2	15.6
COc1cnc(-c2ccccn2)nc1Oc1ccc(Cl)c2ccccc12	13.7
N#Cc1ccccc1CN1C(=O)S/C(=C/c2cccn2-c2cccc(C(=O)O)c2)C1=O	16.9
COc1cc(CNc2ccc(N3CCCCC3)cc2)ccc1OCC(=O)NC(C)(C)C	24.5

Structure (SMILES)	CC50 [µM]
O=C(c1ccccc1)N1CCN(c2ccc(NCc3ccc4c(c3)OCO4)cc2)CC1	17.3
Cc1ccc(/C=N/n2c(-c3ccco3)n[nH]c2=S)cc1	24.7
COc1ccc(NC2CCCN(Cc3cccc4cnccc34)C2)cc1OC (centres undefined)	35.9
CC1=C(C(=O)OCC(C)C)C(c2cccs2)NC(=S)N1 (centres undefined)	21
COc1ccc(-n2c(=O)c3c4c(sc3n3c(=S)[nH]nc23)COC(C(C)C)C4)cc1 (centres undefined)	40.1
C=C1C(=O)O[C@H]2[C@H]1[C@H](OC(=O)CC(=O)O[C@@H]1C[C@@H](C)[C@@H]3C=CC(=O)[C@@]3(C)[C@H]3OC(=O)C(=C)[C@H]13)C[C@@H](C)[C@H]1C=CC(=O)[C@]12C	3.95
O=c1cc2oc3cc(O)c(O)cc3c(-c3ccccc3[N+](=O)[O-])c-2cc1O	24.1
COC1=C(Nc2ccc(O)cc2)C(=O)c2ccccc2C1=O	16.5
CCOC(=O)c1[nH]nc(-c2cc(CC)c(O)cc2O)c1-c1cscn1	33.7
CCN(CC)c1ccc(NC(=O)C2CC(=O)N(Cc3ccccc3)C2)cc1 (centres undefined)	42.7
O=C(O)c1ccc(-n2cccc2/C=C2/NC(=O)N(c3ccccc3)C2=O)cc1	15.6
COc1cccc(-n2c(SCc3cc(=O)oc4cc(O)c(O)cc34)nc3ccccc3c2=O)c1	18.2
Cc1c(Br)c(=O)oc2c(Br)c(O)c(O)cc12	49.2
O=[N+]([O-])c1ccc(-[n+]2ccc3ccccc3c2)c([N+](=O)[O-])c1	29
CN(C)S(=O)(=O)c1cccc(-n2sc3ccccc3c2=O)c1	30.4
CCCCCCCCCCCCCCCC[N+](C)(C)CCN(Cc1ccc(OC)cc1)c1ncccn1	7.39
CCOc1ccc(NCc2cccn2-c2nnc(N3CCC(C(=O)NCCCN4CCCCC4CC)CC3)s2)cc1 (centres undefined)	49.8
CC(=O)N(c1ccc2oc(=O)sc2c1)S(=O)(=O)c1ccccc1	36.8
Cc1ccc(OCCC(=O)N2CCN(c3ccc(O)cc3)CC2)cc1	20.7
COc1cccc(CNc2ccc3[nH]c(=O)[nH]c3c2)c1OCc1ccccc1	37
Cc1ccccc1-n1sc2cc(F)ccc2c1=O	14.6
COc1cc(Cl)ccc1NC(=O)COc1ccccc1C(=O)N1CCN(c2ccc(O)cc2)CC1	33.7
